From publication PMC8222254, “Self-assembly of an anion receptor with metal-dependent kinase inhibition and potent in vitro anti-cancer properties” (Nature Communications, 2021)
Several values for one entry are separate records, joined by “and”; a condition that tells them apart may be missing. Equal entries are not always repeated.

Columns and labels:
Assay in all cases: Kinase inhibition screen, cell-free 33P ATP assay at 10 μM
Type in all cases: biochemical
[1] = molecular target: 140 purified human kinases (Homo sapiens, UniProt P53355)
Chain of 140 purified human kinases (Homo sapiens, UniProt P53355) (P53355 whole entry): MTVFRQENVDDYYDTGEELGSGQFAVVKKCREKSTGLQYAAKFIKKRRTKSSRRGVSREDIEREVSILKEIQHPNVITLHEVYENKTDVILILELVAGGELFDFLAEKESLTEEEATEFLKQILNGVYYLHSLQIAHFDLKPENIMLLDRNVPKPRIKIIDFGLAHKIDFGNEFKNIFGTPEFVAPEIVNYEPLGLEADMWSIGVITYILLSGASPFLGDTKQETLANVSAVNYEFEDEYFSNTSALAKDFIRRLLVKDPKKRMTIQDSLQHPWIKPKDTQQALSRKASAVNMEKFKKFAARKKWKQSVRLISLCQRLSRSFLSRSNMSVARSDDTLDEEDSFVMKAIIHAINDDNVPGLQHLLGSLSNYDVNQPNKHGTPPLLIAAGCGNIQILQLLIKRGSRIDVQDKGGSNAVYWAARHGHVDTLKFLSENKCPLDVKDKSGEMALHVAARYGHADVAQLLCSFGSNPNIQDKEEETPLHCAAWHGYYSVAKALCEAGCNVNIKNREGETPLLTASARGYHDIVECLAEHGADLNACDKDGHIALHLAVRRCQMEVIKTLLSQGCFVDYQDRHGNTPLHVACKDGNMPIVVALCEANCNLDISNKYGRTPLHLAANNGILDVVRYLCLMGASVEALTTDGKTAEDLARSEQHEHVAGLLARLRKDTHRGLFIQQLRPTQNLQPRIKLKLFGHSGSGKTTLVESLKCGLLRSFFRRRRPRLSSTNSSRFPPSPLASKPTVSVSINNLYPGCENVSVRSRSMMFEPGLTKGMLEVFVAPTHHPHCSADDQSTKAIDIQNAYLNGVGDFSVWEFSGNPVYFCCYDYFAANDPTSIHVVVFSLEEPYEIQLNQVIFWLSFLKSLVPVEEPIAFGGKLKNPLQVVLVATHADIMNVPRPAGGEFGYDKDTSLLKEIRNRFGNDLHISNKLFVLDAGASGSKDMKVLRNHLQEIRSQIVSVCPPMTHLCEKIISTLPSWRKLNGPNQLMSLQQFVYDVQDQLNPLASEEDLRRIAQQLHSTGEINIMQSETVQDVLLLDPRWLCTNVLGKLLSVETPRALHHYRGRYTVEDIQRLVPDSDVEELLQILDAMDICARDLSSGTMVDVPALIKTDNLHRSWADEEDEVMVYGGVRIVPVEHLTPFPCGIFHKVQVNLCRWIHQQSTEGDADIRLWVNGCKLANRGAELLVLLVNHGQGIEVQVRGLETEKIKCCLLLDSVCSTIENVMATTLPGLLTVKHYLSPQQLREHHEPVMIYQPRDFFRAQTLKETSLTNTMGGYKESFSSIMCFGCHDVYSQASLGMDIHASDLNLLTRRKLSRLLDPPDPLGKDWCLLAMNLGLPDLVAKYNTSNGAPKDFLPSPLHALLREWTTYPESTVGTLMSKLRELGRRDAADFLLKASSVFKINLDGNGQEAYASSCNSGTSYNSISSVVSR
How it was run: (§1)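 Each complex tested in duplicate at 10 μM; cell-free radiometric assay using ^33P ATP on purified enzymes. Hits mapped by HGNC symbol onto the kinome tree.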

[2] = molecular target: T1, 140 purified human kinases (Homo sapiens, UniProt P29323)
T1 sequence (P29323 19-1055): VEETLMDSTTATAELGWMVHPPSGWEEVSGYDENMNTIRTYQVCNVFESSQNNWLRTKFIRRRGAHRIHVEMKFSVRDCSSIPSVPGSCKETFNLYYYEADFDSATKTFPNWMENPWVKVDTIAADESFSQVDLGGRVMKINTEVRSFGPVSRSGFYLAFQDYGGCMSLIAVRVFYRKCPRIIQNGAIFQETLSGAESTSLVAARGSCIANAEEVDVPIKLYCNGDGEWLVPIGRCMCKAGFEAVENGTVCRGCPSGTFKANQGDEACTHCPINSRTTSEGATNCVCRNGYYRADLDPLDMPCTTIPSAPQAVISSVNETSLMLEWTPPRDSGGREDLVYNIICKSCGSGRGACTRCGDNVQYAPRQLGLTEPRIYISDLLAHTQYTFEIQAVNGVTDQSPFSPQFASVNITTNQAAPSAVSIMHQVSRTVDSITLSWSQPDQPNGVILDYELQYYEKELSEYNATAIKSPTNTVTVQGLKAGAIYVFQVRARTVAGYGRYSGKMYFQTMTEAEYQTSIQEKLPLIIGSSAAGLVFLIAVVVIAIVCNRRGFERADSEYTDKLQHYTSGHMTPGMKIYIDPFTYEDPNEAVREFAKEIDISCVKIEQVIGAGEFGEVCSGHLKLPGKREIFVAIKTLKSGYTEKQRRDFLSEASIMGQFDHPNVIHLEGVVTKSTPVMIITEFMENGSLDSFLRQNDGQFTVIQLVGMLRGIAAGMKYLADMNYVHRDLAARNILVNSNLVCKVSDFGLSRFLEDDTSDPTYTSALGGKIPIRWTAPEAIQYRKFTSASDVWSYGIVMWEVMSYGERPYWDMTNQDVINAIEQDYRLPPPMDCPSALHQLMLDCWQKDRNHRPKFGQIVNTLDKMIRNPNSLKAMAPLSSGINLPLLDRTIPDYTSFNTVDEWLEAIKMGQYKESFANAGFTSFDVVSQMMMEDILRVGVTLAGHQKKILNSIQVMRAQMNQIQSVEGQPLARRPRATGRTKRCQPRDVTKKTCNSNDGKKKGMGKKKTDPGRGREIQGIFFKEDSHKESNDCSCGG
How it was run: as §1

[3] = molecular target: 140 purified human kinases (Homo sapiens, UniProt Q15759); conditions: p38b MAPK
Chain of 140 purified human kinases (Homo sapiens, UniProt Q15759) (Q15759 whole entry): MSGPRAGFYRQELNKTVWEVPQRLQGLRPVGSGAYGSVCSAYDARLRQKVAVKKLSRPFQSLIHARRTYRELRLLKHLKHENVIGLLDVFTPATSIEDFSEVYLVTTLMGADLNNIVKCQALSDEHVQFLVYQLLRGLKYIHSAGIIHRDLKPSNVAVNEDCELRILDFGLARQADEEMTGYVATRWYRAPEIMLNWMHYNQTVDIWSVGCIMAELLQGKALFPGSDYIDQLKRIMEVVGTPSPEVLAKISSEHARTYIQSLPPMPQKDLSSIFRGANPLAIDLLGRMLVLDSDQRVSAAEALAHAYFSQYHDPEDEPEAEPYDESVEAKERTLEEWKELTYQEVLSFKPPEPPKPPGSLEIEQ
How it was run: as §1

[4] = molecular target: 140 purified human kinases (Homo sapiens, UniProt Q96SB4)
Chain of 140 purified human kinases (Homo sapiens, UniProt Q96SB4) (Q96SB4 whole entry): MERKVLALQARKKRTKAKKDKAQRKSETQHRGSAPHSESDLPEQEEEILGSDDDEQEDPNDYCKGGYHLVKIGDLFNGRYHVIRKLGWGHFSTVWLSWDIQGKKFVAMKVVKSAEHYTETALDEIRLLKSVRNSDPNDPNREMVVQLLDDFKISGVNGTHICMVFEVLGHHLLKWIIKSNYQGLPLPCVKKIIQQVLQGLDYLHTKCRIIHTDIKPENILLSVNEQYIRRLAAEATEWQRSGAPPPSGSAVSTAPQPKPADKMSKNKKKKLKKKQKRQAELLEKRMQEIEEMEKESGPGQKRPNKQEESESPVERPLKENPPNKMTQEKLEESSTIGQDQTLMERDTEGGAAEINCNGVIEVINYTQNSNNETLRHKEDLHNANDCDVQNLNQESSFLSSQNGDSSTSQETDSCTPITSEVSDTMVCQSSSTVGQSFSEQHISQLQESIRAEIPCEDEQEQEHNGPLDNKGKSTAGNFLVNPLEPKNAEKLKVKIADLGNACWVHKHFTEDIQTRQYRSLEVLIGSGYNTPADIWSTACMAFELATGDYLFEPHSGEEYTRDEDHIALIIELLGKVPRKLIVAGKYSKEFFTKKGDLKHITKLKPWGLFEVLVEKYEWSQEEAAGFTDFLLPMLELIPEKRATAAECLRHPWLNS
How it was run: as §1

[5] = molecular target: 140 purified human kinases (Homo sapiens, UniProt P23443)
Chain of 140 purified human kinases (Homo sapiens, UniProt P23443) (P23443 whole entry): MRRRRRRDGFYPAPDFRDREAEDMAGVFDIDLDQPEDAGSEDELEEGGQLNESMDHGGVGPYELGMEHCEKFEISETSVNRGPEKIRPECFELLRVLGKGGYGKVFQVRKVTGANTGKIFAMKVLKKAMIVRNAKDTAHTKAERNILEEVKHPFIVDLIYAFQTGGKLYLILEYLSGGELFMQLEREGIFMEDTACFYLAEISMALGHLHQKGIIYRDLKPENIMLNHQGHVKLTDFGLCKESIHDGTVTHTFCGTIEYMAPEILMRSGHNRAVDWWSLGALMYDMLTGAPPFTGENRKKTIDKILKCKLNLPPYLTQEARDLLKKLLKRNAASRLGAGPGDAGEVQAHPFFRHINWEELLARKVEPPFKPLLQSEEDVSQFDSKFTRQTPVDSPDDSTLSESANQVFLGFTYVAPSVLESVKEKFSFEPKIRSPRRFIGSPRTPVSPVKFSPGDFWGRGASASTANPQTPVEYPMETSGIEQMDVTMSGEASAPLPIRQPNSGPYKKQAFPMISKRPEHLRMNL
How it was run: as §1

[6] = molecular target: T2, 140 purified human kinases (Homo sapiens, UniProt Q9NZJ5)
T2 sequence (Q9NZJ5 30-1116): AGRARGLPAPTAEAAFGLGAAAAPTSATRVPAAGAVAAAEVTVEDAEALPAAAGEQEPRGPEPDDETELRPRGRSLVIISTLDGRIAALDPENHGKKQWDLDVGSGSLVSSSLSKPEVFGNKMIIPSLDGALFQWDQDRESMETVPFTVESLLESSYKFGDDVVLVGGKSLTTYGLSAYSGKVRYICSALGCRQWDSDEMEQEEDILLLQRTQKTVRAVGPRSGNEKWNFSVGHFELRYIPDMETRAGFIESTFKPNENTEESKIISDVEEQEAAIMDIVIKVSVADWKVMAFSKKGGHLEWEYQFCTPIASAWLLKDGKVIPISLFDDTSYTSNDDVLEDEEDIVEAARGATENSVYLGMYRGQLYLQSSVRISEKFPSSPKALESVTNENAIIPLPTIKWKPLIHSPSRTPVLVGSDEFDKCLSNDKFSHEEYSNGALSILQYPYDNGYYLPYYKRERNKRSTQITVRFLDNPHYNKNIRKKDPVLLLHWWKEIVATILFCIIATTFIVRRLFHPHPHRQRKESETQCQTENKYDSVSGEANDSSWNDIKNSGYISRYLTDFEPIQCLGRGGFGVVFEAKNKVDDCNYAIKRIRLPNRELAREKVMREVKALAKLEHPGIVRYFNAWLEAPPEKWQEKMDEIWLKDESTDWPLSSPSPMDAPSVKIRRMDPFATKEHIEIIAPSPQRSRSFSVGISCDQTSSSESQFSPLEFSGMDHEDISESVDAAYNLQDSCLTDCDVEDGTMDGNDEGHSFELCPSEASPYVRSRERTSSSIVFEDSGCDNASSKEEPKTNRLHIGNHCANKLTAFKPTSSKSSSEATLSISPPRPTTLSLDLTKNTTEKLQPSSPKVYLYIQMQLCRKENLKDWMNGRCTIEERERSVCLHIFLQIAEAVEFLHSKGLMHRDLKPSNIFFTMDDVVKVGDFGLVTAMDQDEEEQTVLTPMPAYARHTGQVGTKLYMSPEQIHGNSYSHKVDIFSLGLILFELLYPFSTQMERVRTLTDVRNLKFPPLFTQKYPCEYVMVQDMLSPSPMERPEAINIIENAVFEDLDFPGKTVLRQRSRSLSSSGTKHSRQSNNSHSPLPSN
How it was run: as §1

[Cu+2].[Cu+2].[Cu+2].c1ccc(-c2csc(NCCN(CCNc3nc(-c4ccccn4)cs3)CCNc3nc(-c4ccccn4)cs3)n2)nc1.c1ccc(-c2csc(NCCN(CCNc3nc(-c4ccccn4)cs3)CCNc3nc(-c4ccccn4)cs3)n2)nc1 [[L2Cu3]6+]
% Activation, Mean value ([1]; DAPK1): 1.5% | % Inhibition Run 1 ([1]; DAPK1): 6.2% | % Inhibition Run 2 ([1]; DAPK1): -9.2% | % Inhibition, Mean ([1]; DAPK1): -1.5% | mean % activity ([1]; DAPK1): 102% | % activity ([1]; DAPK1, Run 1): 93.8% | % activity ([1]; DAPK1, Run 2): 109.2% | % Inhibition Run 1 ([2]; EPH-B2): 57.3% | % Inhibition Run 2 ([2]; EPH-B2): 57.8% | % Inhibition, Mean ([2]; EPH-B2): 58% | mean % activity ([2]; EPH-B2): 42% | % activity ([2]; EPH-B2, Run 1): 42.7% | % activity ([2]; EPH-B2, Run 2): 42.2% | % Inhibition Run 1 [3]: 24.1% | % Inhibition Run 2 [3]: 0.3% | % Inhibition, Mean [3]: 12% | mean % activity [3]: 88% | % activity ([3]; Run 1): 75.9% | % activity ([3]; Run 2): 99.7% | % Inhibition Run 1 ([4]; SRPK1): 58.1% | % Inhibition Run 2 ([4]; SRPK1): 50.4% | % Inhibition, Mean ([4]; SRPK1): 54% | mean % activity ([4]; SRPK1): 46% | % activity ([4]; SRPK1, Run 1): 41.9% | % activity ([4]; SRPK1, Run 2): 49.6% | % Inhibition Run 1 ([5]; S6K1): 79% | % Inhibition Run 2 ([5]; S6K1): 89.6% | % Inhibition, Mean ([5]; S6K1): 84% | mean % activity ([5]; S6K1): 16% | % activity ([5]; S6K1, Run 1): 21% | % activity ([5]; S6K1, Run 2): 10.4% | % Inhibition Run 1 ([6]; EIF2AK3): 39.9% | % Inhibition Run 2 ([6]; EIF2AK3): 30.4% | % Inhibition, Mean ([6]; EIF2AK3): 35% | mean % activity ([6]; EIF2AK3): 65% | % activity ([6]; EIF2AK3, Run 1): 60.1% | % activity ([6]; EIF2AK3, Run 2): 69.6%

CC(=O)[O-].CC(=O)[O-].CC(=O)[O-].CC(=O)[O-].CC(=O)[O-].CC(=O)[O-].[Zn+2].[Zn+2].[Zn+2].c1ccc(-c2csc(NCCN(CCNc3nc(-c4ccccn4)cs3)CCNc3nc(-c4ccccn4)cs3)n2)nc1.c1ccc(-c2csc(NCCN(CCNc3nc(-c4ccccn4)cs3)CCNc3nc(-c4ccccn4)cs3)n2)nc1 [[L2Zn3]6+]
% Activation, Mean value ([1]; DAPK1): 16% | % Inhibition, Mean ([1]; DAPK1): -16% | % Inhibition, Run 1 / Run 2 ([1]; DAPK1): -12% and -21% | mean % activity ([1]; DAPK1): 116% | % Activity Run 1 ([1]; DAPK1, 10 µM): 112.0% | % Activity Run 2 ([1]; DAPK1, 10 µM): 121.0% | % activity ([1]; DAPK1, duplicate runs): 112% and 121% | % Inhibition, Mean ([2]; EPH-B2): 88% | % Inhibition, Run 1 / Run 2 ([2]; EPH-B2): 89% and 87% | mean % activity ([2]; EPH-B2): 12% | % Activity inhibition Mean ([2]; EPH-B2, 10 µM): 88.0% | % Activity inhibition Run 1 ([2]; EPH-B2, 10 µM): 89% | % Activity inhibition Run 2 ([2]; EPH-B2, 10 µM): 87% | % Activity remaining Run 1 ([2]; EPH-B2, 10 µM): 11% | % Activity remaining Run 2 ([2]; EPH-B2, 10 µM): 13% | % activity ([2]; EPH-B2, duplicate runs): 11% and 13% | % Inhibition, Mean [3]: -0.45% | % Inhibition, Run 1 / Run 2 [3]: 0.2% and -1.1% | mean % activity [3]: 100% | % activity ([3]; duplicate runs): 100% and 101% | % Inhibition, Mean ([4]; SRPK1): 35% | mean % activity ([4]; SRPK1): 66% | % activity ([4]; SRPK1, duplicate runs): 53% and 78% | % Inhibition, Mean ([5]; S6K1): 42% | mean % activity ([5]; S6K1): 58% | % activity ([5]; S6K1, duplicate runs): 43% and 74% | % Inhibition, Mean ([6]; EIF2AK3): 37% | % Inhibition, Run 1 / Run 2 ([6]; EIF2AK3): 45% and 29% | mean % activity ([6]; EIF2AK3): 63% | % activity ([6]; EIF2AK3, duplicate runs): 55% and 71%
